Data reported in US20070049564A1 (Wyeth, priority 2005, published 2007).
Converted amounts (≈) assume the structure as drawn. Read-outs that look alike come from different tables or passages of the source.

Tests used:
[1] = tested on: S. epidermidis GC 4935; assay: MIC, broth microdilution; conditions: Staphylococcus epidermidis
[2] = tested on: E. faecalis GC 2267; assay: MIC, broth microdilution; conditions: Enterococcus faecalis
Description: (§1) Antimicrobial susceptibility testing. The in vitro activities of the antibiotics are determined by the broth microdilution method as recommended by the National Committee for Clinical Laboratory Standards (NCCLS) (1). Mueller-Hinton II broth (MHBII)(BBL Cockeysville, Md.) is the medium employed in the testing procedures. Microtiter plates containing serial dilutions of each antimicrobial agent are inoculated with each organism to yield the appropriate density (10^5 CFU/ml) in a 100 μl final volume. The plates are incubated for 18-22 hours at 35° C. in ambient air.
(§2) Representative compounds were first incubated in mouse serum for an hour prior to the in vitro testing against a panel of selected gram-positive and gram-negative bacteria strains. All compounds were also pre-incubated in water for an hour prior to testing as control.

[3] = tested on: S. aureus GC 6466; assay: MIC, broth microdilution; conditions: Staphylococcus aureus
[4] = tested on: S. aureus GC 1131; assay: MIC, broth microdilution; conditions: Staphylococcus aureus
Description: as §1, §2

[5] = tested on: E. coli GC 2231; assay: MIC, broth microdilution; conditions: Escherichia coli
[6] = tested on: E. faecium GC 4556; assay: MIC, broth microdilution; conditions: Enterococcus faecium
[7] = tested on: E. coli GC 6465; assay: MIC, broth microdilution; conditions: Escherichia coli
[8] = tested on: E. coli GC 2235; assay: MIC, broth microdilution; conditions: Escherichia coli
[9] = tested on: E. coli GC 2233; assay: MIC, broth microdilution; conditions: Escherichia coli
[10] = tested on: E. coli GC 2203; assay: MIC, broth microdilution; conditions: Escherichia coli
[11] = tested on: E. faecalis GC 4555; assay: MIC, broth microdilution; conditions: Enterococcus faecalis
[12] = tested on: S. aureus GC 6467; assay: MIC, broth microdilution; conditions: Staphylococcus aureus
[13] = tested on: E. coli GC 2234; assay: MIC, broth microdilution; conditions: Escherichia coli
[14] = tested on: E. coli GC 2236; assay: MIC, broth microdilution; conditions: Escherichia coli
[15] = tested on: E. coli GC 2272; assay: MIC, broth microdilution; conditions: Escherichia coli
[16] = tested on: S. pneumoniae* GC 4465; assay: MIC, broth microdilution; conditions: Streptococcus pneumoniae
[17] = tested on: S. typhimurium GC 2172; assay: MIC, broth microdilution; conditions: Salmonella enterica, TYPHIMURIUM
Description: as §1, §2

[18] = tested on: S. aureus GC 1079; assay: MIC, broth microdilution; conditions: Staphylococcus aureus
[19] = tested on: Staph.; assay: Range of MIC for Staph. strains, including MRSA; conditions: Staphylococcus aureus
[20] = tested on: E. coli GC 4560; assay: MIC, broth microdilution; conditions: Escherichia coli
[21] = read-out: MINIMAL INHIBITORY CONCENTRATION MIC, Human Serum
[22] = read-out: MINIMAL INHIBITORY CONCENTRATION MIC, Mouse Serum
[23] = read-out: MINIMAL INHIBITORY CONCENTRATION MIC, Water

SMILES: CC(C)CC(=O)OCOC(=O)N(CC(=O)Nc1cc(N(C)C)c2c(c1O)C(=O)C1=C(O)[C@]3(O)C(=O)C(C(N)=O)=C(O)[C@@H](N(C)C)[C@@H]3C[C@@H]1C2)C(C)(C)C [Example 53, ({[(2-{[(5aR,6aS,7S,10aS)-9-(aminocarbonyl)-4,7-bis(dimethylamino)-1,8,10a,11-tetrahydroxy-10,12-dioxo-5,5a,6,6a,7,10,10a,12-octahydrotetracen-2-yl]amino}-2-oxoethyl)(tert-butyl)amino]carbonyl}oxy)methyl 3-methylbutanoate]
- MIC ([1]; GC4935, read-out: MINIMAL INHIBITORY CONCENTRATION MIC, Human Serum): 2 µg/mL (≈ 2.69 µM)
- MIC ([1]; GC4935, read-out: MINIMAL INHIBITORY CONCENTRATION MIC, Mouse Serum): 1 µg/mL (≈ 1.34 µM)
- MIC ([1]; GC4935, read-out: MINIMAL INHIBITORY CONCENTRATION MIC, Water): 2 µg/mL (≈ 2.69 µM)
- MIC ([2]; GC2267, read-out: MINIMAL INHIBITORY CONCENTRATION MIC, Human Serum): 2 µg/mL (≈ 2.69 µM)
- MIC ([2]; GC2267, read-out: MINIMAL INHIBITORY CONCENTRATION MIC, Mouse Serum): 0.5 µg/mL (≈ 0.672 µM)
- MIC ([2]; GC2267, read-out: MINIMAL INHIBITORY CONCENTRATION MIC, Water): 4 µg/mL (≈ 5.38 µM)
- MIC ([3]; GC6466, read-out: MINIMAL INHIBITORY CONCENTRATION MIC, Human Serum): 0.5 µg/mL (≈ 0.672 µM)
- MIC ([3]; GC6466, read-out: MINIMAL INHIBITORY CONCENTRATION MIC, Mouse Serum): 0.5 µg/mL (≈ 0.672 µM)
- MIC ([3]; GC6466, read-out: MINIMAL INHIBITORY CONCENTRATION MIC, Water): 0.5 µg/mL (≈ 0.672 µM)
- MIC ([4]; GC1131, read-out: MINIMAL INHIBITORY CONCENTRATION MIC, Human Serum): 1 µg/mL (≈ 1.34 µM)
- MIC ([4]; GC1131, read-out: MINIMAL INHIBITORY CONCENTRATION MIC, Mouse Serum): 1 µg/mL (≈ 1.34 µM)
- MIC ([4]; GC1131, read-out: MINIMAL INHIBITORY CONCENTRATION MIC, Water): 1 µg/mL (≈ 1.34 µM)
- MIC ([5]; GC2231, read-out: MINIMAL INHIBITORY CONCENTRATION MIC, Human Serum): 16 µg/mL (≈ 21.5 µM)
- MIC ([5]; GC2231, read-out: MINIMAL INHIBITORY CONCENTRATION MIC, Mouse Serum): 1 µg/mL (≈ 1.34 µM)
- MIC ([5]; GC2231, read-out: MINIMAL INHIBITORY CONCENTRATION MIC, Water): 64 µg/mL (≈ 86 µM)
- MIC ([6]; GC4556, read-out: MINIMAL INHIBITORY CONCENTRATION MIC, Human Serum): 2 µg/mL (≈ 2.69 µM)
- MIC ([6]; GC4556, read-out: MINIMAL INHIBITORY CONCENTRATION MIC, Mouse Serum): 0.5 µg/mL (≈ 0.672 µM)
- MIC ([6]; GC4556, read-out: MINIMAL INHIBITORY CONCENTRATION MIC, Water): 2 µg/mL (≈ 2.69 µM)
- MIC ([7]; GC6465, read-out: MINIMAL INHIBITORY CONCENTRATION MIC, Human Serum): 32 µg/mL (≈ 43 µM)
- MIC ([7]; GC6465, read-out: MINIMAL INHIBITORY CONCENTRATION MIC, Mouse Serum): 4 µg/mL (≈ 5.38 µM)
- MIC ([7]; GC6465, read-out: MINIMAL INHIBITORY CONCENTRATION MIC, Water): > 64 µg/mL
- MIC ([8]; GC2235, read-out: MINIMAL INHIBITORY CONCENTRATION MIC, Human Serum): 8 µg/mL (≈ 10.8 µM)
- MIC ([8]; GC2235, read-out: MINIMAL INHIBITORY CONCENTRATION MIC, Mouse Serum): 0.5 µg/mL (≈ 0.672 µM)
- MIC ([8]; GC2235, read-out: MINIMAL INHIBITORY CONCENTRATION MIC, Water): 32 µg/mL (≈ 43 µM)
- MIC ([9]; GC2233, read-out: MINIMAL INHIBITORY CONCENTRATION MIC, Human Serum): 16 µg/mL (≈ 21.5 µM)
- MIC ([9]; GC2233, read-out: MINIMAL INHIBITORY CONCENTRATION MIC, Mouse Serum): 1 µg/mL (≈ 1.34 µM)
- MIC ([9]; GC2233, read-out: MINIMAL INHIBITORY CONCENTRATION MIC, Water): 32 µg/mL (≈ 43 µM)
- MIC ([10]; GC2203, read-out: MINIMAL INHIBITORY CONCENTRATION MIC, Human Serum): 16 µg/mL (≈ 21.5 µM)
- MIC ([10]; GC2203, read-out: MINIMAL INHIBITORY CONCENTRATION MIC, Mouse Serum): 1 µg/mL (≈ 1.34 µM)
- MIC ([10]; GC2203, read-out: MINIMAL INHIBITORY CONCENTRATION MIC, Water): 32 µg/mL (≈ 43 µM)
- MIC ([11]; GC4555, read-out: MINIMAL INHIBITORY CONCENTRATION MIC, Human Serum): 2 µg/mL (≈ 2.69 µM)
- MIC ([11]; GC4555, read-out: MINIMAL INHIBITORY CONCENTRATION MIC, Mouse Serum): 0.5 µg/mL (≈ 0.672 µM)
- MIC ([11]; GC4555, read-out: MINIMAL INHIBITORY CONCENTRATION MIC, Water): 2 µg/mL (≈ 2.69 µM)
- MIC ([12]; GC6467, read-out: MINIMAL INHIBITORY CONCENTRATION MIC, Human Serum): 1 µg/mL (≈ 1.34 µM)
- MIC ([12]; GC6467, read-out: MINIMAL INHIBITORY CONCENTRATION MIC, Mouse Serum): 1 µg/mL (≈ 1.34 µM)
- MIC ([12]; GC6467, read-out: MINIMAL INHIBITORY CONCENTRATION MIC, Water): 2 µg/mL (≈ 2.69 µM)
- MIC ([13]; GC2234, read-out: MINIMAL INHIBITORY CONCENTRATION MIC, Human Serum): 8 µg/mL (≈ 10.8 µM)
- MIC ([13]; GC2234, read-out: MINIMAL INHIBITORY CONCENTRATION MIC, Mouse Serum): 0.5 µg/mL (≈ 0.672 µM)
- MIC ([13]; GC2234, read-out: MINIMAL INHIBITORY CONCENTRATION MIC, Water): 16 µg/mL (≈ 21.5 µM)
- MIC ([14]; GC2236, read-out: MINIMAL INHIBITORY CONCENTRATION MIC, Human Serum): 16 µg/mL (≈ 21.5 µM)
- MIC ([14]; GC2236, read-out: MINIMAL INHIBITORY CONCENTRATION MIC, Mouse Serum): 1 µg/mL (≈ 1.34 µM)
- MIC ([14]; GC2236, read-out: MINIMAL INHIBITORY CONCENTRATION MIC, Water): 32 µg/mL (≈ 43 µM)
- MIC ([15]; GC2272, read-out: MINIMAL INHIBITORY CONCENTRATION MIC, Human Serum): 8 µg/mL (≈ 10.8 µM)
- MIC ([15]; GC2272, read-out: MINIMAL INHIBITORY CONCENTRATION MIC, Mouse Serum): 0.25 µg/mL (≈ 0.336 µM)
- MIC ([15]; GC2272, read-out: MINIMAL INHIBITORY CONCENTRATION MIC, Water): 16 µg/mL (≈ 21.5 µM)
- MIC [16, 21]: 0.25 µg/mL (≈ 0.336 µM)
- MIC [16, 22]: 0.12 µg/mL (≈ 0.161 µM)
- MIC [16, 23]: 0.12 µg/mL (≈ 0.161 µM)
- MIC [17, 21]: 64 µg/mL (≈ 86 µM)
- MIC [17, 22]: 4 µg/mL (≈ 5.38 µM)
- MIC [17, 23]: > 64 µg/mL
- MIC ([18]; GC1079, read-out: MINIMAL INHIBITORY CONCENTRATION MIC, Human Serum): 0.5 µg/mL (≈ 0.672 µM)
- MIC ([18]; GC1079, read-out: MINIMAL INHIBITORY CONCENTRATION MIC, Mouse Serum): 0.5 µg/mL (≈ 0.672 µM)
- MIC ([18]; GC1079, read-out: MINIMAL INHIBITORY CONCENTRATION MIC, Water): 1 µg/mL (≈ 1.34 µM)
- MIC ([19]; MRSA, read-out: Range of MIC, Staph (Mouse Serum)): 0.25 to 1 µg/mL (≈ 0.336 to 1.34 µM)
- MIC ([19]; MRSA, read-out: Range of MIC, Staph (Water)): 0.5 to 2 µg/mL (≈ 0.672 to 2.69 µM)
- MIC ([19]; read-out: Minimum inhibitory concentration (MIC), Staph (Human Serum)): 0.5 to 2 µg/mL (≈ 0.672 to 2.69 µM)
- MIC ([19]; read-out: Minimum inhibitory concentration (MIC), Staph (Water)): 0.5 to 2 µg/mL (≈ 0.672 to 2.69 µM)
- MIC ([20]; GC4560, read-out: MINIMAL INHIBITORY CONCENTRATION MIC, Human Serum): 2 µg/mL (≈ 2.69 µM)
- MIC ([20]; GC4560, read-out: MINIMAL INHIBITORY CONCENTRATION MIC, Mouse Serum): 0.5 µg/mL (≈ 0.672 µM)
- MIC ([20]; GC4560, read-out: MINIMAL INHIBITORY CONCENTRATION MIC, Water): 2 µg/mL (≈ 2.69 µM)
